Reference: ChEMBL document CHEMBL1687706, “Inhibition of human immunodeficiency virus type 1 replication in human cells by Debio-025, a novel cyclophilin binding agent” (Antimicrob Agents Chemother, 2008)
Active and inactive are the calls of the source. No cut-off for these calls is given here.

How the values were obtained:
[1] = tested on: Human immunodeficiency virus 1; assay: microbe, parasite or virus in culture; conditions: Human immunodeficiency virus 1, 3B, MT4
[2] = tested on: Human immunodeficiency virus 1; conditions: Human immunodeficiency virus 1, 3B
Rattus norvegicus [3] = assay: Immunosuppressive activity in Sprague-Dawley rat KHL model assessed as percent cytotoxic T cells at 10 mg/kg, po administered once daily for 28 days by flow cytometry; type: functional, T-cell
Hepatitis C virus = assay: Antiviral activity against HCV infected in human Huh 5.2 cells assessed as reduction in viral RNA level by luciferase reporter gene assay; type: functional, organism-based, Hepacivirus hominis; conditions: Huh-5-2
Rattus norvegicus [4] = assay: Immunosuppressive activity in Sprague-Dawley rat […] model assessed as IgM level at 10 mg/kg, po administered once daily for 28 days by ELISA; type: functional
Coxsackievirus = assay: Antiviral activity against Coxsackie B3 infected in african green monkey Vero cells assessed as inhibition of viral replication; type: functional, organism-based
[5] = tested on: Vesicular stomatitis virus; assay: Antiviral activity against VSV infected in human embryonic lung cells assessed as inhibition of viral replication; type: functional, organism-based
Human alphaherpesvirus 2 [6] = assay: Antiviral activity against Herpes simplex virus 2 196 infected in human embryonic lung cells assessed as inhibition of viral replication; type: functional, organism-based; conditions: Human alphaherpesvirus 2, 196, lung
[7] = tested on: Human papillomavirus type 16; assay: Antiviral activity against HPV-16 infected in Caski cells assessed as inhibition of viral replication after 3 days; type: functional, organism-based, Human papillomavirus 16; conditions: Human papillomavirus 16, Ca-Ski, 72 h
Rattus norvegicus [8] = assay: Immunosuppressive activity in Sprague-Dawley rat […] model assessed as percent T-helper cells at 10 mg/kg, po administered once daily for 28 days by flow cytometry; type: functional
Influenza B virus = assay: Antiviral activity against influenza B virus infected in MDCK cells assessed as inhibition of viral replication; type: functional, organism-based
Human alphaherpesvirus 1 [9] = assay: Antiviral activity against Herpes simplex virus 1 McIntyre infected in human embryonic lung cells assessed as inhibition of viral replication; type: functional, organism-based; conditions: Human alphaherpesvirus 1, McIntyre
Human alphaherpesvirus 2 [10] = assay: Antiviral activity against Herpes simplex virus 2 G infected in human embryonic lung cells assessed as inhibition of viral replication; type: functional, organism-based; conditions: Human alphaherpesvirus 2, strain G
[11] = tested on: Human papillomavirus type 16; assay: Antiviral activity against HPV-16 infected in Caski cells assessed as inhibition of viral replication after 7 days; type: functional, Human papillomavirus 16
Human betaherpesvirus 5 [12] = assay: Antiviral activity against Human cytomegalovirus Davis infected in human embryonic lung cells assessed as reduction in viral yield; type: functional, organism-based; conditions: Human betaherpesvirus 5, Davis
Rattus norvegicus [13] = assay: Immunosuppressive activity in Sprague-Dawley rat […] model assessed as percent T lymphocytes at 10 mg/kg, po administered once daily for 28 days by flow cytometry; type: functional
Influenza A virus [14] = assay: Antiviral activity against Influenza A virus H1N1 infected in MDCK cells assessed as inhibition of viral replication; type: functional, organism-based
[15] = tested on: Human immunodeficiency virus 1; assay: microbe, parasite or virus in culture; conditions: Human immunodeficiency virus 1, SF2
Human betaherpesvirus 5 [16] = assay: Antiviral activity against Human cytomegalovirus AD169 infected in human embryonic lung cells assessed as reduction in viral yield; type: functional, organism-based; conditions: Human betaherpesvirus 5, AD169, lung
[17] = tested on: Bovine viral diarrhea virus 1; assay: Antiviral activity against BVDV infected in […] cells assessed as inhibition of viral replication; type: functional, organism-based; conditions: Bovine viral diarrhea virus isolates and strains
Human alphaherpesvirus 1 [18] = assay: Antiviral activity against Herpes simplex virus 1 KOS infected in human embryonic lung cells assessed as inhibition of viral replication; type: functional, organism-based; conditions: Human alphaherpesvirus 1, KOS
Human alphaherpesvirus 1 [19] = assay: Antiviral activity against Herpes simplex virus 1 F infected in human embryonic lung cells assessed as inhibition of viral replication; type: functional, organism-based; conditions: Human alphaherpesvirus 1, strain F
Vaccinia virus = assay: Antiviral activity against Vaccinia virus infected in human embryonic lung cells assessed as reduction in viral yield measured after 3 days; type: functional, organism-based; conditions: Orthopoxvirus vaccinia, 72 h
[20] = tested on: Human respiratory syncytial virus; assay: Antiviral activity against RSV infected in human HeLa cells assessed as inhibition of viral replication
Feline coronavirus = assay: Antiviral activity against Feline coronavirus infected in CRFK assessed as inhibition of viral replication; type: functional, organism-based; conditions: Alphacoronavirus 1, CRFK
Human alphaherpesvirus 2 [21] = assay: Antiviral activity against Herpes simplex virus 2 Lyons infected in human embryonic lung cells assessed as inhibition of viral replication; type: functional, organism-based; conditions: Human alphaherpesvirus 2, Lyons
Human alphaherpesvirus 3 = assay: Antiviral activity against VZV OKA infected in human embryonic lung cells assessed as inhibition of; type: functional, organism-based; conditions: Human alphaherpesvirus 3, OKA
SARS-CoV = assay: Antiviral activity against SARS coronavirus infected in african green monkey Vero cells assessed as inhibition of viral replication; type: functional, organism-based; conditions: Severe acute respiratory syndrome-related coronavirus
Yellow fever virus = assay: Antiviral activity against Yellow fever virus 17D infected in african green monkey Vero cells assessed as inhibition of viral replication; type: functional, cell-based
Influenza A virus [22] = assay: Antiviral activity against Influenza A virus H3N2 infected in MDCK cells assessed as inhibition of viral replication; type: functional, organism-based
PBMC = assay: Cytotoxicity against human PBMC at 0.83 uM by MTT assay; type: cell-based
Jurkat = assay: Immunosuppressive activity in human Jurkat cells assessed as inhibition of PHA-phorbol myristate acetate induced beta-galactosidase activity at 6.75 uM; type: functional, cell-based
MT4 = assay: Cytotoxicity against human MT4 cells at 0.83 uM by MTT assay; type: cell-based; conditions: mt4, 0.83 µM

SMILES: C/C=C/C[C@@H](C)[C@@H](O)[C@H]1C(=O)N[C@@H](CC)C(=O)N(C)CC(=O)N(C)[C@@H](CC(C)C)C(=O)N[C@@H](C(C)C)C(=O)N(C)[C@@H](CC(C)C)C(=O)N[C@@H](C)C(=O)N[C@H](C)C(=O)N(C)[C@@H](CC(C)C)C(=O)N(C)[C@@H](CC(C)C)C(=O)N(C)[C@@H](C(C)C)C(=O)N1C [CYCLOSPORINE]
- IC50 [1]: > 0.83 µM
- IC50 [2]: 0.45 µM
- Activity (Rattus norvegicus [3]): 9.2%
- IC50 (Hepatitis C virus): 2.3 µM
- deltaA (Rattus norvegicus [4]): 0.18
- IC50 (Coxsackievirus): > 25 µM
- IC50 [5]: > 8.3 µM
- IC50 (Human alphaherpesvirus 2 [6]): > 8.3 µM
- IC50 [7]: 0.4 µM
- Activity (Rattus norvegicus [8]): 23.1%
- IC50 (Influenza B virus): > 14.8 µM
- IC50 (Human alphaherpesvirus 1 [9]): > 8.3 µM
- IC50 (Human alphaherpesvirus 2 [10]): > 8.3 µM
- TC50 [11]: 0.3 µM
- IC50 (Human betaherpesvirus 5 [12]): > 18.3 µM
- Activity (Rattus norvegicus [13]): 33.6%
- IC50 (Influenza A virus [14]): > 14.8 µM
- IC50 [15]: 0.54 µM
- IC50 (Human betaherpesvirus 5 [16]): > 18.3 µM
- IC50 [17]: > 9.9 µM
- IC50 (Human alphaherpesvirus 1 [18]): > 8.3 µM
- IC50 (Human alphaherpesvirus 1 [19]): > 8.3 µM
- IC50 (Vaccinia virus): > 8.3 µM
- IC50 [20]: > 8.3 µM
- IC50 (Feline coronavirus): 1.5 µM
- IC50 (Human alphaherpesvirus 2 [21]): > 8.3 µM
- IC50 (Human alphaherpesvirus 3): 3.3 µM
- IC50 (SARS-CoV): > 8.3 µM
- IC50 (Yellow fever virus): > 16.6 µM
- IC50 (Influenza A virus [22]): > 14.8 µM

SMILES: C/C=C/C[C@@H](C)[C@@H](O)[C@H]1C(=O)N[C@@H](CC)C(=O)N(C)CC(=O)N(C)[C@@H]([C@@H](C)CC)C(=O)N[C@@H](C(C)C)C(=O)N(C)[C@@H](CC(C)C)C(=O)N[C@@H](C)C(=O)N[C@H](C)C(=O)N(C)[C@@H](CC(C)C)C(=O)N(C)[C@@H](CC(C)C)C(=O)N(C)[C@@H](C(C)C)C(=O)N1C [NIM811]
- IC50 [1]: 0.31 µM
- IC50 [2]: 0.47 µM
- Activity (PBMC): Non-toxic
- inhibition (Jurkat): Active
- IC50 [15]: 0.5 µM
- Activity (MT4): Non-toxic
